37 molecules from patent US20080249130A1, “Gut microsomal triglyceride transport protein inhibitors” (Sirtris Pharmaceuticals, Inc., priority 2007, published 2008) can be followed below.

SMILES strings stand for the structures.

This assay has as its system secretion of ApoB by HepG2 cells. The assay can be described thus: ApoB secretion inhibition assay in HepG2 cells (ApoB ELISA). Format: cell-based, human. Conditions: Homo sapiens, HepG2, Table 6, assay of Example 2; read-out: IC50 ApoB Assay. How it is done: The ability of the compounds of the present invention to inhibit the secretion of ApoB can be determined using the following cell-based assay, which measures the secretion of ApoB by HepG2 cells. ApoB has two possible metabolic fates: entrance into the lipoprotein assembly pathway within the lumen of the endoplasmic reticulum (ER), or degradation in the cytoplasm by the ubiquitin-dependent proteasome. The destiny of ApoB is determined by the relative availability of individual lipids, which is controlled by MTP (Davis, Biochim. Biophys. Acta, 1999, 1440, 1-31).
HepG2 cells (ATCC, HB-8065) are seeded in 96-well plates in DMEM with 10% FBS+pen/strep at a density of 1×10^5 cells/well (100 μl /well). Twenty-four hours after seeding, the plate is aspirated and the media changed to DMEM with 1% BSA and pen/strep, and the cells are serum-starved for 24 hours. After 24 hour serum-starvation, the plate is aspirated again and the cells are then treated for 24 hours with or without compound in DMEM with 1% BSA, 0.3 mM OA (OA complexed to BSA at a 2:1 ratio) and pen/strep. The final concentration of DMSO in the assay (from compound and control) is 0.1%. After 24 hour treatment, conditioned media is collected in an empty 96-well plate.
Cellular viability is measured using the cell permeable dye, AlamarBlue™. This dye undergoes electron reduction in viable cells but not dead cells. The reduced dye product gives a fluorescent signal which can be monitored with a fluorescence plate reader (excitation 545 nm and emission 575 nm). The amount of fluorescence generated in a given well is proportional to the number of viable cells. After collection, the 96-well plate is re-fed with 100 μl media (DMEM with 10% FBS) and 10 μl Alamar Blue™ per well, incubated for 2 hours and then read in a fluorescence plate reader.
ApoB secretion from HepG2 cells is quantitated by testing the conditioned media at […] using an ApoB ELISA kit (ALerCHEK) according to the manufacturer's instructions. The ELISA assay for ApoB is performed as follows: a polyclonal antibody against human ApoB (Chemicon) is diluted 1:1000 in carbonate-bicarbonate buffer and 100 μl are added to each well of a 96-well plate (NUNC). After 5 hours incubation at room temperature, the antibody solution is removed and wells are washed four times with PBS/0.05% TweenD 20 (Cayman Chemical Co.). Non-specific sites on the plastic plate are blocked by incubating wells for 1 to 1.5 hours in a solution of 0.5% BSA and 0.1% TweenD 20 made in PBS. One hundred microliters of a 1:20 dilution of growth medium from the HepG2 cells (made in 0.004% TweenD 20/1% BSA in PBS) is added to each well and incubated for 3 hours at room temperature. Wells are aspirated and washed four times (0.05% TweenD 20 in PBS) prior to adding 100 μl of a 1:1000 dilution (5 μg/ml) of the secondary antibody, mouse anti-human ApoB (Chemicon). After 2 hours incubation at room temperature, this solution is aspirated and the wells are again washed 4 times as above. One hundred microliters of peroxidase-conjugated affinity purified goat anti-mouse IgG (H+L) (Jackson ImmunoResearch Laboratories) (1:10,000 dilution in PBS/1% BSA/0.1% TweenD 20) is then added to each well and incubated for 1 hour at room temperature. After aspirating, the wells are washed 4 times as above and 50 μl of 1-step Ultra TMB ELISA reagent (Pierce) is added to each well and incubated for 5 minutes. The reaction is stopped by the addition of 50 μl of 2 NH2SO4 and absorbance of each well is read at 450 nm.
Turning to `CC(C)(C)c1ccc(-c2ccccc2C(=O)Nc2ccc3nc(C(=O)N[C@H](C(=O)NCc4ccccc4)c4ccccc4)sc3c2)cc1` [Compound 6], the IC50 (as a rule, the concentration needed to halve the response being measured) worked out at 4 nM. With `CCCCCNC(=O)[C@@H](NC(=O)c1cccc(-c2csc(NC(=O)c3ccccc3-c3ccc(C(C)(C)C)cc3)n2)c1)c1ccccc1` [Compound 11] the figure was 296 nM; with `CN(Cc1ccc(F)cc1)C(=O)[C@@H](NC(=O)c1cccc(-c2csc(NC(=O)c3ccccc3-c3ccc(C(C)(C)C)cc3)n2)c1)c1ccccc1` [Compound 13], 238 nM. With `CCCCCNC(=O)[C@@H](NC(=O)c1ccccc1-c1csc(NC(=O)c2ccccc2-c2ccc(C(C)(C)C)cc2)n1)c1ccccc1` [Compound 15] the figure was above 10000 nM; with `CC(C)(C)c1ccc(-c2ccccc2C(=O)Nc2nc(-c3ccccc3C(=O)N[C@H](C(=O)N3CCCC3)c3ccccc3)cs2)cc1` [Compound 16, (S)-4′-tert-butyl-N-(4-(2-(2-oxo-1-phenyl-2-(pyrrolidin-1-yl)ethylcarbamoyl)phenyl)thiazol-2-yl)biphenyl-2-carboxamide], 1100 nM; with `CN(Cc1ccc(F)cc1)C(=O)[C@@H](NC(=O)c1ccccc1-c1csc(NC(=O)c2ccccc2-c2ccc(C(C)(C)C)cc2)n1)c1ccccc1` [Compound 17], above 10000 nM. `CC(C)(C)c1ccc(-c2ccccc2C(=O)Nc2ccc3nc(C(=O)O)sc3c2)cc1` [Compound 18]: the IC50 was 2700 nM.

`CN(Cc1ccc(F)cc1)C(=O)[C@@H](NC(=O)c1nc2ccc(N)cc2s1)c1ccccc1` [Compound 19]: the half-maximal inhibitory concentration (IC50) is above 10000 nM.

Consider `CC(C)(C)c1ccc(-c2ccccc2C(=O)NCC23CCC(C(=O)N[C@H](C(=O)N4CCCC4)c4ccccc4)(CC2)CC3)cc1` [Compound 20], for which the IC50 is 95 nM. Next, `CC(C)(C)c1ccc(-c2ccccc2C(=O)NCC23CCC(C(=O)N[C@H](C(=O)N4CCC(F)(F)C4)c4ccccc4)(CC2)CC3)cc1` [Compound 21]: 190 nM. Turning to `CC(C)(C)c1ccc(-c2ccccc2C(=O)NCC23CCC(C(=O)N[C@H](C(=O)N4Cc5ccccc5C4)c4ccccc4)(CC2)CC3)cc1` [Compound 22], the IC50 worked out at 253 nM.

As for `CC(C)(C)c1ccc(-c2ccccc2C(=O)Nc2ccc3nc(C(=O)N[C@H](C(=O)N4Cc5ccccc5C4)c4ccccc4)sc3c2)cc1` [Compound 23], the IC50 was 21.6 nM. Next, `Cc1noc(-c2ccccc2C(=O)Nc2ccc3nc(C(=O)N[C@H](C(=O)N(C)Cc4ccc(F)cc4)c4ccccc4)sc3c2)n1` [Compound 25]: 59.4 nM.

For `CC(C)(C)c1ccc(-c2ccccc2C(=O)Nc2nc(-c3cccc(C(=O)N[C@H](C(=O)N4CCC(F)(F)C4)c4ccccc4)c3)cs2)cc1` [Compound 26], the IC50 worked out at 77.2 nM. With `CC(C)(C)c1ccc(-c2ccccc2C(=O)Nc2nc(-c3cccc(C(=O)N[C@H](C(=O)N4Cc5ccccc5C4)c4ccccc4)c3)cs2)cc1` [Compound 27] the figure was 318 nM. Consider `CN(Cc1ccc(F)cc1)C(=O)[C@@H](NC(=O)c1nc2ccc(NC(=O)c3ccccc3-c3cccnc3)cc2s1)c1ccccc1` [Compound 28], for which the IC50 stood at 158 nM. With `CN(Cc1ccc(F)cc1)C(=O)[C@@H](NC(=O)c1nc2ccc(NC(=O)c3ccccc3-n3cnnn3)cc2s1)c1ccccc1` [Compound 29] the figure was 4200 nM; with `CN(Cc1ccc(F)cc1)C(=O)[C@@H](NC(=O)c1nc2ccc(NC(=O)c3ccccc3-n3cccn3)cc2s1)c1ccccc1` [Compound 31], 93.1 nM; with `CC(C)(C)c1ccc(-c2ccccc2C(=O)Nc2ccc3nc(C(=O)N[C@@H](C(=O)N4CCCC4)c4ccccc4)sc3c2)cc1` [Compound 34], 34.8 nM.

Turning to `CN(Cc1ccc(F)cc1)C(=O)[C@H](NC(=O)c1nc2ccc(NC(=O)c3ccccc3-c3ccc(C(C)(C)C)cc3)cc2s1)c1ccccc1` [Compound 35], the IC50 is 9.8 nM.

`CN(Cc1ccc(F)cc1)C(=O)[C@@H](NC(=O)c1ccc(-c2csc(NC(=O)c3ccccc3-c3ccc(C(C)(C)C)cc3)n2)cc1)c1ccccc1` [Compound 37]: the IC50 came out at 35.3 nM.

As for `CN(Cc1ccc(F)cc1)C(=O)[C@@H](NC(=O)c1nc2ccc(NC(=O)c3ccccc3-c3nc4ccccc4[nH]3)cc2s1)c1ccccc1` [Compound 39], the IC50 turned out to be 256 nM. Consider `O=C(N[C@H](C(=O)N1CCCC1)c1ccccc1)c1nc2ccc(NC(=O)c3ccccc3-c3cn4ccsc4n3)cc2s1` [Compound 43], for which the IC50 was found to be 105 nM.

For `O=C(N[C@H](C(=O)N1CCCCC1)c1ccccc1)c1nc2ccc(NC(=O)c3ccccc3-c3cn4ccsc4n3)cc2s1` [Compound 44], the IC50 stood at 1610 nM. Turning to `CC(C)(C)c1ccc(-c2ccccc2C(=O)NCC23CCC(C(=O)N[C@H](C(=O)N4CCCCC4)c4ccccc4)(CC2)CC3)cc1` [Compound 45], the IC50 worked out at 98.2 nM. With `CC(C)(C)c1ccc(-c2ccccc2C(=O)NCC23CCC(C(=O)N[C@H](C(=O)NC4CCCC4)c4ccccc4)(CC2)CC3)cc1` [Compound 46] the figure was 151 nM; with `CN(C(=O)[C@@H](NC(=O)C12CCC(CNC(=O)c3ccccc3-c3ccc(C(C)(C)C)cc3)(CC1)CC2)c1ccccc1)C1CCCC1` [Compound 47], 78.8 nM; with `CC(C)(C)c1ccc(-c2ccccc2C(=O)NCC23CCC(C(=O)N[C@H](C(=O)NC4CCCCC4)c4ccccc4)(CC2)CC3)cc1` [Compound 48], 230 nM. Next, `CC(C)(C)c1ccc(-c2ccccc2C(=O)NCC23CCC(C(=O)N[C@H](C(=O)NCC4CC4)c4ccccc4)(CC2)CC3)cc1` [Compound 49]: 60.3 nM. On to `CC(C)(C)NC(=O)[C@@H](NC(=O)C12CCC(CNC(=O)c3ccccc3-c3ccc(C(C)(C)C)cc3)(CC1)CC2)c1ccccc1` [Compound 50], for which the IC50 is 165 nM.

As to `CN(C(=O)[C@@H](NC(=O)c1nc2ccc(NC(=O)c3ccccc3-c3cn4ccsc4n3)cc2s1)c1ccccc1)C1CCCC1` [Compound 51], the IC50 stood at 872 nM. In the case of `CC(C)(C)NC(=O)[C@@H](NC(=O)c1nc2ccc(NC(=O)c3ccccc3-c3cn4ccsc4n3)cc2s1)c1ccccc1` [Compound 52], the IC50 turned out to be 248 nM.

`CN(C(=O)[C@@H](NC(=O)c1nc2ccc(NC(=O)c3ccccc3-c3cn4ccsc4n3)cc2s1)c1ccccc1)C(C)(C)C` [Compound 53]: the IC50 amounted to 4180 nM. For the molecule `CN(Cc1ccc(F)cc1)C(=O)[C@@H](NC(=O)c1nc(-c2ccc(NC(=O)c3ccccc3-c3ccc(C(C)(C)C)cc3)cc2)cs1)c1ccccc1` [Compound 56, (S)-4-(4-(4′-tert-butylbiphenyl-2-ylcarboxamido)phenyl)-N-(2-((4-fluorobenzyl)(methyl)amino)-2-oxo-1-phenylethyl)thiazole-2-carboxamide], the IC50 is 846 nM. With `CC(C)(C)c1ccc(-c2ccccc2C(=O)Nc2ccc(-c3csc(C(=O)N[C@H](C(=O)N4CCCC4)c4ccccc4)n3)cc2)cc1` [Compound 57, (S)-4-(4-(4′-tert-butylbiphenyl-2-ylcarboxamido)phenyl)-N-(2-oxo-1-phenyl-2-(pyrrolidin-1-yl)ethyl)thiazole-2-carboxamide] the figure was 272 nM; with `CN(C(=O)[C@@H](NC(=O)C12CCC(CNC(=O)c3ccccc3-c3ccc(C(C)(C)C)cc3)(CC1)CC2)c1ccccc1)C1CCCCC1` [Compound 58], 300 nM; with `CN(C(=O)[C@@H](NC(=O)c1nc2ccc(NC(=O)c3ccccc3-c3cn4ccsc4n3)cc2s1)c1ccccc1)C1CCCCC1` [Compound 61], 2100 nM.
